18 compounds from US10259810B2, “N-sulfonylated pyrazolo[3,4-b]pyridin-6-carboxamides and method of use” (AbbVie S.à.r.l., priority 2015, dated 2019) can be followed below.

Experiment [1] has as its target T1, ΔF508-CFTR (Homo sapiens, UniProt P13569, DEL508-508).
T1 construct: host or cells: CFBE41o-, doxycycline-inducible
The experiment is described as follows: CFTR cell surface levels using HRP-tagged ΔF508-CFTR expressing CFBE cells, intrinsic corrector capacity. It counts as cell-based. Further details: % Activation: concentration or dose not given beside the values. In a few lines:
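Surface ΔF508-CFTR was measured as HRP chemiluminescence from an extracellular-loop-4 tag, expressed as percent activity between DMSO and a […] corrector control.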

The target in experiment [2] is T1, ΔF508-CFTR. Put plainly: CFTR cell surface levels using HRP-tagged ΔF508-CFTR expressing CFBE cells, in the presence of a co-corrector. Type of experiment: cell-based. In a few lines:
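Chemiluminescent read-out of surface HRP (15 min, dark) after PBS washes. Activity is normalized as 100×(sample−DMSO)/(3 μM co-corrector alone−DMSO).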

[3] abbreviates: HRP-tagged ΔF508-CFTR expressing CFBE41o- cells, compound alone (intrinsic corrector capacity), 20 hours at 33° C.
Where [4] appears, read: HRP-tagged ΔF508-CFTR expressing CFBE41o- cells, compound alone (intrinsic corrector capacity), 20 hours at 33° C., read-out: EC50.
Setting [5] is: HRP-tagged ΔF508-CFTR CFBE cells, in the presence of 3 μM co-corrector.
Where [6] appears, read: HRP-tagged ΔF508-CFTR CFBE cells, in the presence of 3 μM co-corrector, read-out: EC50.

T1 sequence (P13569 with tags, fused parts or gaps DEL508-508): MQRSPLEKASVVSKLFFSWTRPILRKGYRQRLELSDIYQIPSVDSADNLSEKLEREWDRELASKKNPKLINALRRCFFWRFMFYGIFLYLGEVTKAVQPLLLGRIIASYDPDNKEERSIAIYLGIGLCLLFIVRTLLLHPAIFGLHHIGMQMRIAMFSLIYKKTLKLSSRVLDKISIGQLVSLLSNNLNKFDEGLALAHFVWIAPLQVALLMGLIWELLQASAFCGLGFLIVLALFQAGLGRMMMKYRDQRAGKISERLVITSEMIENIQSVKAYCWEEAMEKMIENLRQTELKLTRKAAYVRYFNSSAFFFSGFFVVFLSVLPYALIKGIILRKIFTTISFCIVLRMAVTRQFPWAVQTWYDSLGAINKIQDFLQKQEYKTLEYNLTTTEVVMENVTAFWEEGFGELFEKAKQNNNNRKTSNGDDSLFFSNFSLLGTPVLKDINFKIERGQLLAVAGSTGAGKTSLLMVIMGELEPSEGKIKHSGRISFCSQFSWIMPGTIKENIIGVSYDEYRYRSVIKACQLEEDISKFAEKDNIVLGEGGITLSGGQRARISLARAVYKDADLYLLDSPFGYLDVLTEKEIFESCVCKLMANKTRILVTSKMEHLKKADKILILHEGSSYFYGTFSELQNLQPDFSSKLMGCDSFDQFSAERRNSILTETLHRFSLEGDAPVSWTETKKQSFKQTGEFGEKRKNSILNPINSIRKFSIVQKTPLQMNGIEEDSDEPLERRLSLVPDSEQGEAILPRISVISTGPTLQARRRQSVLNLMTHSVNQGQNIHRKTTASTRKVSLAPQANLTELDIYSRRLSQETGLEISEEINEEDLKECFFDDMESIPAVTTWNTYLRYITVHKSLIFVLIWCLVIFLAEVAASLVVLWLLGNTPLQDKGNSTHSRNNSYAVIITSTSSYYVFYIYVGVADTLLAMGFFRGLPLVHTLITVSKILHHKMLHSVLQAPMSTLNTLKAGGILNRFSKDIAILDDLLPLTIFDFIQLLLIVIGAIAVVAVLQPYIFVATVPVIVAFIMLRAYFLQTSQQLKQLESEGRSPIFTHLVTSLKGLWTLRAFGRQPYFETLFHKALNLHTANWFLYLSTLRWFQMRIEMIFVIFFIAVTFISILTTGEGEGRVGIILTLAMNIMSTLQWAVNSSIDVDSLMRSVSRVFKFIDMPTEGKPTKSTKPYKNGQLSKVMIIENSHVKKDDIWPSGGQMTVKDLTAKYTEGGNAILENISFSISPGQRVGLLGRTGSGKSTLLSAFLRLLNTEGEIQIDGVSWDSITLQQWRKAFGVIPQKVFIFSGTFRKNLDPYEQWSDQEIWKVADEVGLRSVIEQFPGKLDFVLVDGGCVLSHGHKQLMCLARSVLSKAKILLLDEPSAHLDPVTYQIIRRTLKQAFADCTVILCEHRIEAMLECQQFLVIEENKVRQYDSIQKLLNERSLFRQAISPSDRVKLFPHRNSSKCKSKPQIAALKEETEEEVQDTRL

On to `O=C(NS(=O)(=O)N1CCC(N2CCCCC2)CC1)c1cc(N2CCC(N3CCOCC3)CC2)c2c(C3CCC3)nn(-c3ccccc3)c2n1` [Compound 453, N-([1,4'-bipiperidine]-1'-sulfonyl)-3-cyclobutyl-4-[4-(morpholin-4-yl)piperidin-1-yl]-1-phenyl-1H-pyrazolo[3,4-b]pyridine-6-carboxamide], for which the “% Activation” value worked out at 149.3% on ΔF508-CFTR [1] (setting [3]) and 385.1% at ΔF508-CFTR [2] (setting [5]). Moreover, the results for the EC50 at ΔF508-CFTR [1] (setting [4]) and on ΔF508-CFTR [2] (setting [6]) were 403 nM and 319 nM, respectively.

On to `O=C(NS(=O)(=O)CCCN1CCOCC1)c1cc(N2CCC(N3CCCCC3)CC2)c2c(C3CCC3)nn(-c3ccccc3)c2n1` [Compound 454, 4-([1,4′-bipiperidin]-1′-yl)-3-cyclobutyl-N-[3-(morpholin-4-yl)propane-1-sulfonyl]-1-phenyl-1H-pyrazolo[3,4-b]pyridine-6-carboxamide], for which the 50% effective concentration (EC50) at ΔF508-CFTR [1] came to 1670 nM; on ΔF508-CFTR [2], 639 nM. Besides, the “% Activation” value on ΔF508-CFTR [1] (setting [3]) amounted to 168.1%; at ΔF508-CFTR [2] (setting [5]), 430.2%.

On to `CCOC(=O)N1CCC(NS(=O)(=O)NC(=O)c2cc(N3CCC(CN4CCCC4)CC3)c3c(C4CCC4)nn(-c4ccccc4)c3n2)CC1` [Compound 457, ethyl 4-{[(3-cyclobutyl-1-phenyl-4-{4-[(pyrrolidin-1-yl)methyl]piperidin-1-yl}-1H-pyrazolo[3,4-b]pyridine-6-carbonyl)sulfamoyl]amino}piperidine-1-carboxylate], for which the “% Activation” value is recorded as 272.2% at ΔF508-CFTR [1] (setting [3]) and 508% at ΔF508-CFTR [2] (setting [5]). The EC50 stood at 128 nM at ΔF508-CFTR [1] (setting [4]) and 139 nM on ΔF508-CFTR [2] (setting [6]).

Consider `COC[C@H]1CCCN1C1CCN(S(=O)(=O)NC(=O)c2cc(N3CCC(CN4CCCC4)CC3)c3c(C4CCC4)nn(-c4ccccc4)c3n2)CC1` [Compound 458, 3-cyclobutyl-N-{4-[(2R)-2-(methoxymethyl)pyrrolidin-1-yl]piperidine-1-sulfonyl}-1-phenyl-4-{4-[(pyrrolidin-1-yl)methyl]piperidin-1-yl}-1H-pyrazolo[3,4-b]pyridine-6-carboxamide], for which the entries for the “% Activation” value on ΔF508-CFTR [1] (setting [3]) and on ΔF508-CFTR [2] (setting [5]) were 124.4% and 282.8%, respectively. The EC50 on ΔF508-CFTR [1] (setting [4]) amounted to 794 nM; on ΔF508-CFTR [2] (setting [6]) it was 920 nM.

Consider `O=C(NS(=O)(=O)N1CCC(F)CC1)c1cc(N2CCC(CN3CCCC3)CC2)c2c(C3CCC3)nn(-c3ccccc3)c2n1` [Compound 459, 3-cyclobutyl-N-(4-fluoropiperidine-1-sulfonyl)-1-phenyl-4-{4-[(pyrrolidin-1-yl)methyl]piperidin-1-yl}-1H-pyrazolo[3,4-b]pyridine-6-carboxamide], for which the “% Activation” value stood at 225.65% at ΔF508-CFTR [1] (setting [3]) and 388.87% at ΔF508-CFTR [2] (setting [5]). The EC50 on ΔF508-CFTR [1] (setting [4]) turned out to be 149 nM; at ΔF508-CFTR [2] (setting [6]) it was 96.1 nM.

For the compound `CN1CCN(S(=O)(=O)NC(=O)c2cc(N3CCC(CN4CCCC4)CC3)c3c(C4CCC4)nn(-c4ccccc4)c3n2)CC1` [Compound 460, 3-cyclobutyl-N-(4-methylpiperazine-1-sulfonyl)-1-phenyl-4-{4-[(pyrrolidin-1-yl)methyl]piperidin-1-yl}-1H-pyrazolo[3,4-b]pyridine-6-carboxamide], the entries for the “% Activation” value at ΔF508-CFTR [1] (setting [3]) and at ΔF508-CFTR [2] (setting [5]) were 125.8% and 306.75%, respectively. Moreover, the values for the EC50 at ΔF508-CFTR [1] (setting [4]) and on ΔF508-CFTR [2] (setting [6]) were 596 nM and 505 nM, respectively.

Consider `CC1(S(=O)(=O)NC(=O)c2cc(N3CCC(CN4CCCC4)CC3)c3c(C4CCC4)nn(-c4ccccc4)c3n2)CC1` [Compound 461, 3-cyclobutyl-N-(1-methylcyclopropane-1-sulfonyl)-1-phenyl-4-{4-[(pyrrolidin-1-yl)methyl]piperidin-1-yl}-1H-pyrazolo[3,4-b]pyridine-6-carboxamide], for which the “% Activation” value at ΔF508-CFTR [1] (setting [3]) stood at 212.3%; at ΔF508-CFTR [2] (setting [5]) it was 364.1%. Also, the EC50 amounted to 209 nM on ΔF508-CFTR [1] (setting [4]) and 177 nM on ΔF508-CFTR [2] (setting [6]).

Consider `O=C(NS(=O)(=O)C1CC1)c1cc(N2CCC(CN3CCCC3)CC2)c2c(C3CCC3)nn(-c3ccccc3)c2n1` [Compound 462, 3-cyclobutyl-N-(cyclopropanesulfonyl)-1-phenyl-4-{4-[(pyrrolidin-1-yl)methyl]piperidin-1-yl}-1H-pyrazolo[3,4-b]pyridine-6-carboxamide], for which the “% Activation” value was determined as 317.4% on ΔF508-CFTR [1] (setting [3]) and 495.1% on ΔF508-CFTR [2] (setting [5]). For the same compound, the EC50 at ΔF508-CFTR [1] (setting [4]) stood at 776 nM; at ΔF508-CFTR [2] (setting [6]), 107 nM.

For the compound `CCS(=O)(=O)NC(=O)c1cc(N2CCC(CN3CCCC3)CC2)c2c(C3CCC3)nn(-c3ccccc3)c2n1` [Compound 463, 3-cyclobutyl-N-(ethanesulfonyl)-1-phenyl-4-{4-[(pyrrolidin-1-yl)methyl]piperidin-1-yl}-1H-pyrazolo[3,4-b]pyridine-6-carboxamide], the results for the “% Activation” value at ΔF508-CFTR [1] (setting [3]) and on ΔF508-CFTR [2] (setting [5]) were 263.9% and 490.6%, respectively. The concentration for a half-maximal effect (EC50) at ΔF508-CFTR [1] (setting [4]) is 419 nM; at ΔF508-CFTR [2] (setting [6]) it was 194 nM.

As to `COCCS(=O)(=O)NC(=O)c1cc(N2CCC(CN3CCCC3)CC2)c2c(C3CCC3)nn(-c3ccccc3)c2n1` [Compound 464, 3-cyclobutyl-N-(2-methoxyethanesulfonyl)-1-phenyl-4-{4-[(pyrrolidin-1-yl)methyl]piperidin-1-yl}-1H-pyrazolo[3,4-b]pyridine-6-carboxamide], the results for the “% Activation” value at ΔF508-CFTR [1] (setting [3]) and at ΔF508-CFTR [2] (setting [5]) were 277.5% and 423.3%, respectively. The EC50 at ΔF508-CFTR [1] (setting [4]) came out at 306 nM; on ΔF508-CFTR [2] (setting [6]) it was 170 nM.

Consider `CC(C)(C)S(=O)(=O)NC(=O)c1cc(N2CCC(CN3CCCC3)CC2)c2c(C3CCC3)nn(-c3ccccc3)c2n1` [Compound 465, 3-cyclobutyl-N-(2-methylpropane-2-sulfonyl)-1-phenyl-4-{4-[(pyrrolidin-1-yl)methyl]piperidin-1-yl}-1H-pyrazolo[3,4-b]pyridine-6-carboxamide], for which the “% Activation” value at ΔF508-CFTR [1] (setting [3]) is listed as 131.6%; on ΔF508-CFTR [2] (setting [5]), 293.15%. Further, the EC50 at ΔF508-CFTR [1] (setting [4]) worked out at 313 nM; at ΔF508-CFTR [2] (setting [6]), 360 nM.

As for `CCS(=O)(=O)NC(=O)c1cc(N2CCC(N3CCOCC3)CC2)c2c(C3CCC3)nn(-c3ccc(F)cc3)c2n1` [Compound 466, 3-cyclobutyl-N-(ethanesulfonyl)-1-(4-fluorophenyl)-4-[4-(morpholin-4-yl)piperidin-1-yl]-1H-pyrazolo[3,4-b]pyridine-6-carboxamide], the entries for the “% Activation” value at ΔF508-CFTR [1] (setting [3]) and at ΔF508-CFTR [2] (setting [5]) were 318.7% and 522.47%, respectively. In addition, the EC50 on ΔF508-CFTR [1] (setting [4]) was 176 nM; on ΔF508-CFTR [2] (setting [6]), 64.1 nM.

As to `CN(C)S(=O)(=O)NC(=O)c1cc(-c2ccc(CN3CCOCC3)cc2)c2c(C3CCC3)nn(C3CCCCC3)c2n1` [Compound 475, 3-cyclobutyl-1-cyclohexyl-N-(dimethylsulfamoyl)-4-{4-[(morpholin-4-yl)methyl]phenyl}-1H-pyrazolo[3,4-b]pyridine-6-carboxamide], the “% Activation” value on ΔF508-CFTR [1] (setting [3]) is recorded as 140.1%; at ΔF508-CFTR [2] (setting [5]), 289.95%. The figures for the EC50 at ΔF508-CFTR [1] (setting [4]) and on ΔF508-CFTR [2] (setting [6]) were 179 nM and 112 nM, respectively.

As for `CN(C)S(=O)(=O)NC(=O)c1cc(-c2ccc(CCN3CCOCC3)cc2)c2c(C3CCC3)nn(C3CCCCC3)c2n1` [Compound 476, 3-cyclobutyl-1-cyclohexyl-N-(dimethylsulfamoyl)-4-{4-[2-(morpholin-4-yl)ethyl]phenyl}-1H-pyrazolo[3,4-b]pyridine-6-carboxamide], the “% Activation” value stood at 134.2% on ΔF508-CFTR [1] (setting [3]) and 355.65% on ΔF508-CFTR [2] (setting [5]). The EC50 was 215 nM at ΔF508-CFTR [1] (setting [4]) and 151 nM on ΔF508-CFTR [2] (setting [6]).

Regarding `C#CCCS(=O)(=O)NC(=O)c1cc(N2CCC(N3CCOCC3)CC2)c2c(C3CCC3)nn(-c3ccc(F)cc3)c2n1` [Compound 477, N-(but-3-yne-1-sulfonyl)-3-cyclobutyl-1-(4-fluorophenyl)-4-[4-(morpholin-4-yl)piperidin-1-yl]-1H-pyrazolo[3,4-b]pyridine-6-carboxamide], the figures for the “% Activation” value at ΔF508-CFTR [1] (setting [3]) and on ΔF508-CFTR [2] (setting [5]) were 341.4% and 536.7%, respectively. Also, the results for the EC50 at ΔF508-CFTR [1] (setting [4]) and at ΔF508-CFTR [2] (setting [6]) were 117 nM and 34.7 nM, respectively.

As for `CCS(=O)(=O)NC(=O)c1cc(N2CCC(N3CCCCC3)CC2)c2c(C3CCC3)nn(-c3ccc(F)cc3)c2n1` [Compound 478, 4-([1,4'-bipiperidin]-1'-yl)-3-cyclobutyl-N-(ethanesulfonyl)-1-(4-fluorophenyl)-1H-pyrazolo[3,4-b]pyridine-6-carboxamide], the results for the “% Activation” value at ΔF508-CFTR [1] (setting [3]) and at ΔF508-CFTR [2] (setting [5]) were 295.4% and 476.7%, respectively. Further, the figures for the EC50 at ΔF508-CFTR [1] (setting [4]) and on ΔF508-CFTR [2] (setting [6]) were 2640 nM and 127 nM, respectively.

With `CN(C)S(=O)(=O)NC(=O)c1cc(-c2ccc(CN3CCOCC3)cc2)c2c(OC3CCC3)nn(C3CCCCC3)c2n1` [Compound 481, 3-(cyclobutyloxy)-1-cyclohexyl-N-(dimethylsulfamoyl)-4-{4-[(morpholin-4-yl)methyl]phenyl}-1H-pyrazolo[3,4-b]pyridine-6-carboxamide], the results for the “% Activation” value on ΔF508-CFTR [1] (setting [3]) and on ΔF508-CFTR [2] (setting [5]) were 114.2% and 285.65%, respectively. For the same compound, the EC50 at ΔF508-CFTR [1] (setting [4]) stood at 278 nM; at ΔF508-CFTR [2] (setting [6]) it was 154 nM.

As to `CC(C)N(C)S(=O)(=O)NC(=O)c1cc(N2CCC(N3CCOCC3)CC2)c2c(C3CCC3)nn(-c3ccc(F)cc3)c2n1` [Compound 482, 3-cyclobutyl-1-(4-fluorophenyl)-N-[methyl(propan-2-yl)sulfamoyl]-4-[4-(morpholin-4-yl)piperidin-1-yl]-1H-pyrazolo[3,4-b]pyridine-6-carboxamide], the “% Activation” value on ΔF508-CFTR [1] (setting [3]) is on record as 214.1%; at ΔF508-CFTR [2] (setting [5]), 436.4%. Besides, the EC50 at ΔF508-CFTR [1] (setting [4]) turned out to be 88.2 nM; at ΔF508-CFTR [2] (setting [6]), 61.6 nM.
